Data on 4 compounds can be found in article PMC11078216, “Discovery of potent and selective activity-based probes (ABPs) for the deubiquitinating enzyme USP30” (RSC Chemical Biology, 2024).

The test has as its target T1, USP30 (Homo sapiens, UniProt Q70CQ3).
T1 construct: Catalog #E-582 residues 57-517; purchased E-582
T1 sequence (Q70CQ3 57-517): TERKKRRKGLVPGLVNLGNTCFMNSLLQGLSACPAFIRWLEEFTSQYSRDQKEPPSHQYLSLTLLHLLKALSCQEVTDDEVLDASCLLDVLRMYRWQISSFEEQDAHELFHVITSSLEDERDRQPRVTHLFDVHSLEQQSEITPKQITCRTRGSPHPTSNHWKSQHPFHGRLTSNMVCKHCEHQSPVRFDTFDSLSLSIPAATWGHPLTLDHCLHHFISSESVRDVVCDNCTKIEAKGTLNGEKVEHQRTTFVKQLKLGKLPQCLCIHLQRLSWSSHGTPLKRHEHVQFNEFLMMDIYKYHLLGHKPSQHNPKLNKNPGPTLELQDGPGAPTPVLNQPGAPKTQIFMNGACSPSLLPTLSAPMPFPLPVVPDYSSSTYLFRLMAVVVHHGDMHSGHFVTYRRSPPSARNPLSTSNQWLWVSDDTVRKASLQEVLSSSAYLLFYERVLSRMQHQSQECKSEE
Put plainly: USP30 biochemical IC50 fluorescence polarisation assay using Ub-Lys(TAMRA)-Gly. Particulars: 30 min incubation, USP30 5 nM, Ub-Lys(TAMRA)-Gly 100 nM; read-out: IC50 against USP30. Here is the method:
We first confirmed biochemical inhibition of USP30 with our probes in a fluorescence polarisation (FP) assay using a TAMRA labelled Lys-Gly dipeptide linked to ubiquitin via an isopeptide bond (Ub-Lys(TAMRA)-Gly). USP30 (5 nM) was incubated across a concentration series of test compound for 30 min, followed by FP measurement after addition of Ub-Lys(TAMRA)-Gly (100 nM).
4. Biochemical and biological methods and proteomics
1) Biochemical USP30 fluorescence polarisation (FP) assay using Ub-Lys(TAMRA)-Gly a. USP30 biochemical IC50 assay
Reactions were performed in triplicate in black 384 well plates (Greiner #784076) in a final reaction volume of 21 μL. Compound dilutions were prepared at 21× final concentration (2000 nM for a final concentration of 100 nM) in 50% DMSO/water. USP30 was diluted in reaction buffer A (40 mM Tris, pH 7.5, 0.005% Tween 20, 0.5 mg/ml BSA, 5 mM betamercaptoethanol) and 10 μL of diluted 10.5 nM USP30 was added to the compound (final concentration 5 nM). Enzyme and compound were incubated for 30 min at room temperature. Reactions were initiated by the addition of 10 ul 200 nM (final concentration 100 nM) of TAMRA labeled peptide linked to ubiquitin via an iso-peptide bond (Ub-Lys(TAMRA)-Gly, UbiQ-012). Reactions were read immediately after substrate addition using a Pherastar Plus (BMG Labtech; λEx 531 nm, λEm 579 nm). IC50 values were determined by plotting percentage USP30 activity against compound concentration and fitting a four -parameter dose-response curve (Graphpad Prism 5.03). […]
Kinetic progress curves were fitted to equation y = (vi/kobs) (1 − exp(−kobs*x)) to determine the kobs value (for first 30 min data). The kobs value was then plotted against the inhibitor concentration to […]
For `N#CN1CC[C@@H](NC(=O)c2cc(-c3ccccc3Oc3ccc(N=[N+]=[N-])cc3)n[nH]2)C1` [IMP-2586], the IC50 amounted to 16.3 nM. With `C#Cc1cccc(-c2cc(NC(=O)CC3CCN(C#N)C3)on2)c1` (stereo not shown) [IMP-2587] the figure was 12.6 nM; with `N#CN1CC[C@H](CC(=O)Nc2cc(-c3cccc(Cl)c3)no2)C1` [compound 1, reference compound], 18.3 nM. In the case of `N#CN1CC[C@@H](NC(=O)c2cc(-c3ccccc3Oc3ccccc3)n[nH]2)C1` [compound 3, reference compound], the IC50 turned out to be 4.8 nM.
